# Measurements published in patent US20120172351A1, “NOVEL FUSED CYCLIC COMPOUND AND USE THEREOF” (priority 2009, published 2012).
# Counter-ions that a name gives are not always drawn. Marks after values point to notes of the source that are not given here.
# How the values were obtained:
# N-STZ-1.5 rat = experiment: Oral glucose tolerance test in N-STZ-1.5 rat (type 2 diabetes model); format: in vivo; details: male N-STZ-1.5 rats, 1 mg/kg oral, glucose 1.5 g/kg 1 hr after dosing; for Blood glucose lowering rate: glucose AUC 0-120 min vs control group; for Insulin increasing rate: insulin AUC 0-120 min vs control group
# Procedure: The blood glucose increase suppressive action and insulin secretagogue action of the compound of the present invention were evaluated by an oral glucose tolerance test using N-STZ-1.5 rat (TAKEDA RABICS).
# Streptozotocin (120 mg/kg) was subcutaneously administered to male Wistar Kyoto rats (1-2 days old) to prepare N-STZ-1.5 rat which is a type 2 diabetes model. The rats were bred under free access to a feed (CE-2, sold by CLEA Japan, Inc.).
# Male N-STZ-1.5 rats (21-week-old) were fasted for 19-21 hr, and the body weight was measured. Heparin (Ajinomoto Co., Inc.) was added as an anticoagulant, and aprotinin (SIGMA) was added as a protease inhibitor, and the blood was collected from the tail vein. 0.5% Methylcellulose (control group) or a 0.5% methylcellulose suspension of a test compound (1 mg/kg body weight) was orally administered to the rats of each group (6 per group) at 5 ml/kg and, 1 hr after the administration, a glucose solution (Otsuka Pharmaceutical Factory, Inc.) was orally administered at 1.5 g/5 ml/kg. The blood was collected from the tail vein immediately before glucose loading (0 min value) and 10, 30, 60, 120 min thereafter. The blood was centrifuged and the plasma was separated. The plasma glucose and insulin concentration of the obtained plasma were measured. The plasma glucose was measured by automatic analyzer 7080 (HITACHI), and the insulin concentration was measured by RAT INSULIN RIA KIT (LINCO Research). The glucose AUC and insulin AUC were calculated from the obtained values by the following formulas. Moreover, blood glucose lowering rate and insulin increasing rate were calculated from the obtained AUC by the following formulas. Statistical significance versus control was analyzed by Student's t-test or Aspin-Welch test.
# {(0 min plasma glucose)+(10 min plasma glucose)}×10/2+{(10 min plasma glucose)+(30 min plasma glucose)}×20/2+{(30 min plasma glucose)+(60 min plasma glucose)}×30/2+{(60 min plasma glucose)+(120 min plasma glucose)}×60/2
# {(0 min plasma insulin)+(10 min plasma insulin)}×10/2+{(10 min plasma insulin)+(30 min plasma insulin)}×20/2+{(30 min plasma insulin)+(60 min plasma insulin)}×30/2+{(60 min plasma insulin)+(120 min plasma insulin)}×60/2
# blood glucose lowering rate: [(test compound administration group glucose AUC/control group glucose AUC)−1]×100
# insulin increasing rate: [(test compound administration group insulin AUC/control group […] AUC)-1]×100
# human derived GPR40 = biological target: T1, human derived GPR40 (Homo sapiens, UniProt O14842); experiment: Agonist action on human derived GPR40: change of intracellular calcium concentration in CHO cells (FLIPRtetra); format: cell-based; details: agonist activity of compound at 1 μM, relative to 10 μM γ linolenic acid as 100%, wave peak height; CHO cells stably expressing human GPR40
# T1 construct: expressed in transfected cells
# T1 sequence (O14842 whole entry): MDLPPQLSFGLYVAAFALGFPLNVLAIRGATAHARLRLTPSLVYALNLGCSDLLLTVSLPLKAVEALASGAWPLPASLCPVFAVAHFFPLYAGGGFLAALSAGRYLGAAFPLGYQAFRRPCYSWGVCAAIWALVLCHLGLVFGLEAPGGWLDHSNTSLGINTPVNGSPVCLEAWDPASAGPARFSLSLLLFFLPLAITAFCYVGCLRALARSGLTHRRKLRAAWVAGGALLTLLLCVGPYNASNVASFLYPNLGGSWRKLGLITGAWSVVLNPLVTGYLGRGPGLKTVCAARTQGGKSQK
# Procedure: The CHO cell lines that stably expressed human derived GPR40 were used for the determination of the agonist activity. Unless particularly specified, the CHO cell lines were cultured in an α-MEM medium (Wako Pure Chemical Industries, Ltd.) containing 10% dialyzed fetal bovine serum (TRA Thermo Electron).
# The cells cultured almost to confluent on the day before assay were rinsed with PBS (Invitrogen), detached with 0.5 mM EDTA (Wako Pure Chemical Industries, Ltd.), and recovered by centrifugation. The obtained cells were counted, diluted to 2×10^5 cells per 1 mL medium, dispensed by 40 μL per well to a 384 well black clear bottomplate (PE Biosystems), and cultured overnight in a CO2 incubator. Various test compounds were added to CHO cells prepared as mentioned above, and change of intracellular calcium concentration was measured using FLIPRtetra (Molecular Device). For the measurement by this device, a Calcium 4 assay kit (Molecular Devices: R8142) was used.
# First, fatty acid free BSA at the final concentration of 0.1% was added to the buffer attached to the kit to prepare an assay buffer. Using the assay buffer, a loading solution with Fluo4 was prepared such that the final concentration of fatty acid free BSA was 0.1% and the final concentration of probenecid was 625 μM. On the other hand, a test compound was diluted with the assay buffer to a given concentration, and dispensed to the polypropylene 384-well plate (sample plate). The medium was removed from the cell culture plate, and the loading solution with Fluo4 was dispensed by 25 μL. After culture in a CO2 incubator at 37° C. for 40 min, a sample plate and a cell plate were simultaneously set on the FLIPRtetra, various test compounds were added by 25 μL according to the program of the device, and change of intracellular calcium concentration was measured. The agonist activity of each compound at 1 μM was calculated as a relative activity value to the activity of 10 μM γ linolenic acid as 100% from the wave peak height.
# Wistar fatty rat = experiment: Oral glucose tolerance test in Wistar fatty rat; format: in vivo; details: female Wistar fatty rats, 1 mg/kg oral, glucose 1 g/kg 1 hr after dosing; glucose AUC 0-120 min vs control group
# Procedure: The blood glucose increase suppressive action of the compound of the present invention was evaluated by an oral glucose tolerance test using Wistar fatty rat (TAKEDA RABICS).
# The animal used was female Wistar fatty rat (prepared by TAKEDA RABICS, 18- to 22-week-old). The rats were bred under free access to a feed (CE-2, sold by CLEA Japan, Inc.).
# Female Wistar fatty rats (18- to 22-week-old) were fasted for 19-21 hr, and the body weight was measured. Heparin (Ajinomoto Co., Inc.) was added as an anticoagulant, and aprotinin (SIGMA) was added as a protease inhibitor, and the blood was collected from the tail vein. 0.5% Methylcellulose (control group) or a 0.5% methylcellulose suspension of a test compound (1 mg/kg body weight) was orally administered to the rats of each group (6 per group) at 5 ml/kg and, 1 hr after the administration, a glucose solution (Otsuka Pharmaceutical Factory, Inc.) was orally administered at 1 g/5 ml/kg. […] The plasma glucose of the obtained plasma were measured by automatic analyzer 7080 (HITACHI). The glucose AUC was calculated from the obtained values by the formulas described in Experimental Example 2. Moreover, blood glucose lowering rate was calculated from the obtained AUC by the formulas described in Experimental Example 2. Statistical significance versus control was analyzed by Student's t-test.
SMILES,Blood glucose lowering rate (N-STZ-1.5 rat),Insulin increasing rate (N-STZ-1.5 rat),activity (%) (human derived GPR40),melting point [°C],Blood glucose lowering rate (Wistar fatty rat) [%**]
"Cc1cc(OCCCS(C)(=O)=O)cc(C)c1-c1cccc2c1OC[C@H]2Nc1ccc2c(c1)OC[C@H]2CC(=O)O [Example 7, [(3S)-6-{[(3S)-7-{2,6-dimethyl-4-[3-(methylsulfonyl)propoxy]phenyl}-2,3-dihydro-1-benzofuran-3-yl]amino}-2,3-dihydro-1-benzofuran-3-yl]acetic acid]",−20.5%**,+39.5%^$,124,169,
"Cc1nc(N2CCCC2)nc(C)c1-c1cccc2c1OC[C@H]2Nc1ccc2c(c1)OC[C@H]2CC(=O)O [Example 79, [(3S)-6-({(3S)-7-[4,6-dimethyl-2-(pyrrolidin-1-yl)pyrimidin-5-yl]-2,3-dihydro-1-benzofuran-3-yl}amino)-2,3-dihydro-1-benzofuran-3-yl]acetic acid]",,,126,169,
"CCCN(c1cc(C)ccn1)c1cccc2c1OC[C@H]2Nc1ccc2c(c1)OC[C@H]2CC(=O)O [Example 82, [(3S)-6-({(3S)-7-[(4-methylpyridin-2-yl)(propyl)amino]-2,3-dihydro-1-benzofuran-3-yl}amino)-2,3-dihydro-1-benzofuran-3-yl]acetic acid]",,,129,146,
"Cc1nc(N2CCOCC2)nc(C)c1-c1cccc(CNc2ccc3c(c2)OC[C@H]3CC(=O)O)c1C (as salt: salt) [Example 242, 1,3-dihydroxy-2-(hydroxymethyl)propan-2-aminium [(3S)-6-({3[4,6-dimethyl-2-(morpholin-4-yl)pyrimidin-5-yl]-2-methylbenzyl}amino)-2,3-dihydro-1-benzofuran-3-yl]acetate]",,,,154,
"Cc1nc(N2CCOCC2)nc(C)c1-c1cccc2c1OC[C@H]2Nc1ccc2c(c1)OC[C@H]2CC(=O)O.O [Example 77-1, Hydrate of [(3S)-6-({(3S)-7-[4,6-dimethyl-2-(morpholin-4-yl)pyrimidin-5-yl]-2,3-dihydro-1-benzofuran-3-yl}amino)-2,3-dihydro-1-benzofuran-3-yl]acetic acid]",−13.6%^$,+40.2%^$,,,
"Cc1cc(OC2CCS(=O)(=O)CC2)cc(C)c1-c1cccc2c1OC[C@H]2Nc1ccc2c(c1)OC[C@H]2CC(=O)O [Example 9, [(3S)-6-{[(3S)-7-{4-[(1,1-dioxidotetrahydro-2H-thiopyran-4-yl)oxy]-2,6-dimethylphenyl}-2,3-dihydro-1-benzofuran-3-yl]amino}-2,3-dihydro-1-benzofuran-3-yl]acetic acid]",,,128,176,−15.8
"Cc1nc(N2CCOCC2)nc(C)c1-c1cccc2c1OC[C@H]2Nc1ccc2c(c1)OC[C@H]2CC(=O)O [Example 77, [(3S)-6-({(3S)-7-[4,6-dimethyl-2-(morpholin-4-yl)pyrimidin-5-yl]-2,3-dihydro-1-benzofuran-3-yl}amino)-2,3-dihydro-1-benzofuran-3-yl]acetic acid]",,,,168,
"CCOc1nc2ccc(F)c(F)c2n1-c1cccc2c1OC[C@H]2Nc1ccc2c(c1)OC[C@H]2CC(=O)[O-].[Na+] [Example 33, sodium [(3S)-6-{[(3S)-7-(2-ethoxy-6,7-difluoro-1H-benzimidazol-1-yl)-2,3-dihydro-1-benzofuran-3-yl]amino}-2,3-dihydro-1-benzofuran-3-yl]acetate]",,,109,,−19.5
"Cc1cc(OC[C@@H]2CCC(=O)N2)cc(C)c1-c1cccc2c1OC[C@H]2Nc1ccc2c(c1)OC[C@H]2CC(=O)O [Example 8, [(3S)-6-{[(3S)-7-(2,6-dimethyl-4-{[(2S)-5-oxopyrrolidin-2-yl]methoxy}phenyl)-2,3-dihydro-1-benzofuran-3-yl]amino}-2,3-dihydro-1-benzofuran-3-yl]acetic acid]",,,131,161,
